Experimental data from patent US9717709B2, “Substituted pyrazoles as heat shock transcription factor activators” (Duke University, priority 2010, dated 2017).

Key:
mouse model of ALS = conditions: Kieran et al., Nature Medicine 2004; cited from earlier work
Hsp90 = assay: competitive binding assay in vitro using biotinylated geldanamycin (GD-B)
Excerpt: Many pharmacological inhibitors of Hsp90 such as geldanamycin and 17-AAG target the amino-terminal ATP binding pocket of Hsp90, thereby inhibiting its chaperone function. To test whether HSF1A has affinity for the Hsp90 ATP-binding pocket, we performed competitive binding assays in vitro using a biotinylated geldanamycin (GD-B) molecule. […] Because other small molecule inhibitors of Hsp90, including celastrol, novobiocin, and EGCG, are thought to bind Hsp90 at the carboxy-terminus Amolins, M and Blagg, B, Mini Rev Med Chem. 2009 9, 140-152, we ascertained whether HSF1A could bind to Hsp90 at a region outside of the ATPbinding pocket. To assay for HSF1A binding to Hsp90, we generated an HSF1A-biotin conjugate (HSF1A-B)) and assayed the ability of HSF1A-B to interact with Hsp90.

[O-][n+]1cccc(/C(Cl)=N/OC[C@H](O)CN2CCCCC2)c1 [arimoclomal]
disease progression (mouse model of ALS): significantly delays disease progression

C=CCNC1=C2C[C@@H](C)C[C@H](OC)[C@H](O)[C@@H](C)/C=C(\C)[C@H](OC(N)=O)[C@@H](OC)/C=C\C=C(/C)C(=O)NC(=CC1=O)C2=O [17-AAG]
competition with GD-B for Hsp90 binding (Hsp90; at 1 mM and 10 mM): able to compete

CCc1ccc(S(=O)(=O)Nc2cc(-c3cccs3)nn2-c2ccccc2)cc1 [HSF1A]
competition with GD-B for Hsp90 binding (Hsp90; concentrations 100-fold higher than GD-B): unable to compete
